Measurements published in paper PMC6337650 (Molecules, 2018).

Columns and labels:
BEL-7402 cells = test: MTT antiproliferative assay, BEL-7402; type: cell-based, human; conditions: Homo sapiens, Bel-7402, 48 h, MTT, mean ± SD, n=3; for inhibition at 100 µM: read-out: % Growth Inhibition at 100 μM BEL-7402
Experimental: (§1) The antiproliferative activity of the target compounds against a normal L02 cell line and the three different human cancer cell lines viz. colorectal (HCT-116), liver (BEL-7402) and liver (HepG2) were evaluated using a standard MTT-based colorimetric assay. All cell lines were obtained from the Key Laboratory of Natural Resources and Functional Molecules of the Changbai Mountain (Yanbian University, Jilin, China) and maintained in Dulbecco’s modified Eagle’s medium (DMEM) and RPMI Media 1640 (RPMI1640), supplemented with 10% fetal bovine serum (FBS) at 37 °C in a humidified atmosphere containing 5% CO2.
(§2) Cells were plated in 96-well plates at appropriate densities to ensure exponential growth throughout the experimental period (9 × 10^3 cells per well) and then allowed to adhere for 24 h. Cells were then treated for 48 h with four serial concentrations (1, 10, 50 and 100 µM) of each compound. 5-fluorouracil (5-FU) was used as a positive control. After 48 h of incubation, 10 µL of MTT solution was added to each well to a final concentration of 2 mg/mL. Plates were then incubated for a further 4 h. After incubation, the MTT solution was removed and 150 µL of DMSO was added to each well for coloration. The plates were shaken vigorously for 10 min at room temperature to ensure complete solubilization. The optical density (OD) was read on a microplate reader (ELx800, BioTek, Highland Park, Winooski, VT, USA) at a wavelength of 492 nm and the data were subsequently analyzed. The percentage of cell growth inhibition was calculated from the following equation: Inhibitory rate (%) = [(1 − (ODtreated-ODblank)/(ODcontrol-ODblank)] × 100.(1)

L02 cells = test: MTT assay on normal liver cells L02; type: cell-based; conditions: Homo sapiens, normal liver cells, 48 h, MTT, Table 2, read-out: IC50 Values (μM) L02
Experimental: as §1
as §2, with “5-fluorouracil (5-FU) was used as a positive control.” left out

HepG2 cells = test: MTT antiproliferative assay, HepG2; type: cell-based, human; conditions: Homo sapiens, HepG2, 48 h, MTT, mean ± SD, n=3; for inhibition at 100 µM: read-out: % Growth Inhibition at 100 μM HepG2
Experimental: as §1, §2

HCT-116 cells = test: MTT antiproliferative assay, HCT-116; type: cell-based, human; conditions: Homo sapiens, HCT-116, 48 h, MTT, mean ± SD, n=3; for inhibition at 100 µM: read-out: % Growth Inhibition at 100 μM HCT-116
Experimental: as §1, §2

Compound | IC50 (BEL-7402 cells) [µM] | melting point [°C] | IC50 (HepG2 cells) [µM] | IC50 (HCT-116 cells) [µM] | inhibition at 100 µM (BEL-7402 cells) [%] | IC50 (L02 cells) [µM] | inhibition at 100 µM (HepG2 cells) [%] | inhibition at 100 µM (HCT-116 cells) [%]
CN(C)CCNC(=O)[C@]1(C)CCC[C@@]2(C)[C@@H]3CC[C@@]4(C)C[C@]3(CC[C@@H]21)CC4=O [Compound 1b, (4R,4aS,6aR,9S,11aR,11bS)-N-(2-(dimethylamino)ethyl)-4,9,11b-trimethyl-8-oxotetradecahydro-6a,9-methanocyclohepta[a]naphthalene-4-carboxamide] | > 100 | 102 to 103 | > 100 | 24 ± 1.2 | 88.5 ± 2.02 | > 100 | 57 ± 2.35 | 76.6 ± 1.78
CCN1CCN(C(=O)COC(=O)[C@]2(C)CCC[C@@]3(C)[C@@H]4CC[C@@]5(C)C[C@]4(CC[C@@H]32)CC5=O)CC1 [Compound 2b, 2-(4-ethylpiperazin-1-yl)-2-oxoethyl(4R,4aS,6aR,9S,11aR,11bS)-4,9,11b-trimethyl-8-oxotetradecahydro-6a,9-methanocyclohepta[a]naphthalene-4-carboxylate] | > 100 | 115 to 117 | > 100 | 30.7 ± 1.98 | 64.4 ± 1.66 | > 100 | < 10 | 60.4 ± 1.69
C[C@@]12CC[C@@H]3[C@@](CC[C@H]4[C@@]3(C)CCC[C@@]4(C)C(=O)OCC(=O)N3CCN(Cc4ccccc4)CC3)(CC1=O)C2 [Compound 2d, 2-(4-benzylpiperazin-1-yl)-2-oxoethyl(4R,4aS,6aR,9S,11aR,11bS)-4,9,11b-trimethyl-8-oxotetradecahydro-6a,9-methanocyclohepta[a]naphthalene-4-carboxylate] | 53 ± 1.97 | 149 to 150 | 11.1 ± 0.55 | 18.2 ± 1.26 | 70.9 ± 1.05 | > 100 | 70.6 ± 0.89 | 75.4 ± 1.06
C[C@@]12CC[C@@H]3[C@@](CC[C@H]4[C@@]3(C)CCC[C@@]4(C)C(=O)OCC(=O)N3CCCCCC3)(CC1=O)C2 [Compound 2e, 2-(azepan-1-yl)-2-oxoethyl(4R,4aS,6aR,9S,11aR,11bS)-4,9,11b-trimethyl-8-oxotetradecahydro-6a,9-methanocyclohepta[a]naphthalene-4-carboxylate] | 13.2 ± 0.32 | 110 to 112 | 20.5 ± 0.46 | > 100 | 64.9 ± 1.01 | > 100 | 50.4 ± 0.57 | 85.6 ± 0.96
CCOP(=O)(OCC)C(NC(=O)COC(=O)[C@]1(C)CCC[C@@]2(C)[C@@H]3CC[C@@]4(C)C[C@]3(CC[C@@H]21)CC4=O)c1ccccc1 (stereo partly drawn) [Compound 6a, 2-(((diethoxyphosphoryl)(phenyl)methyl)amino)-2-oxoethyl(4R,4aS,6aR,9S,11aR,11bS)-4,9,11b-trimethyl-8-oxotetradecahydro-6a,9-methanocyclohepta[a]naphthalene-4-carboxylate] |  | 156 to 157 |  |  | 33.7 ± 0.91 |  | 28 ± 0.99 | 50 ± 2.27
CCOP(=O)(OCC)C(NC(=O)COC(=O)[C@]1(C)CCC[C@@]2(C)[C@@H]3CC[C@@]4(C)C[C@]3(CC[C@@H]21)CC4=O)c1ccc(Cl)cc1 (stereo partly drawn) [Compound 6b, 2-(((4-chlorophenyl)(diethoxyphosphoryl)methyl)amino)-2-oxoethyl(4R,4aS,6aR,9S,11aR,11bS)-4,9,11b-trimethyl-8-oxotetradecahydro-6a,9-methanocyclohepta[a]naphthalene-4-carboxylate] |  | 149 to 150 |  |  | 50.4 ± 1.63 |  | 40.2 ± 2.56 | 50.3 ± 2.31
CCOP(=O)(OCC)C(NC(=O)COC(=O)[C@]1(C)CCC[C@@]2(C)[C@@H]3CC[C@@]4(C)C[C@]3(CC[C@@H]21)CC4=O)c1ccc(Cl)c(Cl)c1 (stereo partly drawn) [Compound 6e, 2-(((3,4-dichlorophenyl)(diethoxyphosphoryl)methyl)amino)-2-oxoethyl(4R,4aS,6aR,9S,11aR,11bS)-4,9,11b-trimethyl-8-oxotetradecahydro-6a,9-methanocyclohepta[a]naphthalene-4-carboxylate] |  | 168 to 169 |  |  | 49.9 ± 1.26 |  | 39.5 ± 1.37 | 43.5 ± 0.56
C[C@@]12CC[C@@H]3[C@@](CC[C@H]4[C@@]3(C)CCC[C@@]4(C)C(=O)O)(CC1=O)C2 [Isosteviol, isosteviol, reference compound] | > 100 |  | > 100 | > 100 | 28 ± 1.79 | > 100 | 11.8 ± 0.88 | 34.1 ± 1.89

The next lines start with results.

IC50 (BEL-7402 cells) [µM] | melting point [°C] | IC50 (HepG2 cells) [µM] | IC50 (HCT-116 cells) [µM] | Compound | inhibition at 100 µM (BEL-7402 cells) [%] | IC50 (L02 cells) [µM] | inhibition at 100 µM (HepG2 cells) [%] | inhibition at 100 µM (HCT-116 cells) [%]
> 100 | 143 to 145 | > 100 | 40.4 ± 0.97 | COC(=O)[C@@H](NC(=O)[C@]1(C)CCC[C@@]2(C)[C@@H]3CC[C@@]4(C)C[C@]3(CC[C@@H]21)CC4=O)c1ccccc1 [Compound 3a, Methyl(S)-2-phenyl-2-((4R,4aS,6aR,9S,11aR,11bS)-4,9,11b-trimethyl-8-oxotetradecahydro-6a,9-methanocyclohepta[a]naphthalene-4-carboxamido)acetate] | 80 ± 0.95 | > 100 | 75.25 ± 0.56 | 86.26 ± 0.59
 | 140 to 142 |  |  | C[C@@]12CC[C@@H]3[C@@](CC[C@H]4[C@@]3(C)CCC[C@@]4(C)C(=O)OCC(=O)Nc3ccc(Cl)cc3)(CC1=O)C2 [Compound 4d, 2-((4-chlorophenyl)amino)-2-oxoethyl(4R,4aS,6aR,9S,11aR,11bS)-4,9,11b-trimethyl-8-oxotetradecahydro-6a,9-methanocyclohepta[a]naphthalene-4-carboxylate] | 52.9 ± 2.11 |  | 31.9 ± 1.31 | 56.9 ± 2.35
 | 168 to 169 |  |  | C[C@@]12CC[C@@H]3[C@@](CC[C@H]4[C@@]3(C)CCC[C@@]4(C)C(=O)OCC(=O)Nc3ccccc3F)(CC1=O)C2 [Compound 4e, 2-((2-fluorophenyl)amino)-2-oxoethyl(4R,4aS,6aR,9S,11aR,11bS)-4,9,11b-trimethyl-8-oxotetradecahydro-6a,9-methanocyclohepta[a]naphthalene-4-carboxylate] | 38.7 ± 1.52 |  | < 10 | 27.9 ± 0.44
 | 140 to 141 |  |  | C[C@@]12CC[C@@H]3[C@@](CC[C@H]4[C@@]3(C)CCC[C@@]4(C)C(=O)OCC(=O)Nc3ccc(F)cc3)(CC1=O)C2 [Compound 4g, 2-((4-fluorophenyl)amino)-2-oxoethyl(4R,4aS,6aR,9S,11aR,11bS)-4,9,11b-trimethyl-8-oxotetradecahydro-6a,9-methanocyclohepta[a]naphthalene-4-carboxylate] | 63 ± 2.13 |  | 39.1 ± 1.13 | 65.6 ± 3.01
 | 86 to 88 |  |  | COc1ccc(NC(=O)COC(=O)[C@]2(C)CCC[C@@]3(C)[C@@H]4CC[C@@]5(C)C[C@]4(CC[C@@H]32)CC5=O)cc1 [Compound 4i, 2-((4-methoxyphenyl)amino)-2-oxoethyl(4R,4aS,6aR,9S,11aR,11bS)-4,9,11b-trimethyl-8-oxotetradecahydro-6a,9-methanocyclohepta[a]naphthalene-4-carboxylate] | 45.6 ± 1.47 |  | < 10 | 53.1 ± 2.56
 | 166 to 168 |  |  | COc1ccc(OC)c(NC(=O)COC(=O)[C@]2(C)CCC[C@@]3(C)[C@@H]4CC[C@@]5(C)C[C@]4(CC[C@@H]32)CC5=O)c1 [Compound 4j, 2-((2,5-dimethoxyphenyl)amino)-2-oxoethyl(4R,4aS,6aR,9S,11aR,11bS)-4,9,11b-trimethyl-8-oxotetradecahydro-6a,9-methanocyclohepta[a]naphthalene-4-carboxylate] | 31.3 ± 1.76 |  | < 10 | < 10
